Laboratory results from patent US20040171089A1, “High-throughput screening assay for identifying substances capable of modulating cell survival and/or proliferation” (priority 2001, published 2004).
Entries after “also recorded” stand apart in the source; their conditions may differ.

Assays:
MDA MB 468 cells [1] = assay: Fura-2 calcium imaging, MDA MB 468 cells; format: cell-based, human; details: for % increase of cytosolic calcium (peak 340/380 nm fura-2 ratio): MDA 468 cells; for effect on cytosolic calcium levels (in words): MDA MB 468 cells, FIG. 2a: IPAG 1-10 μM, rimcazole 10-30 μM, (+)-SKF 10,047 10 μM, (+)-pentazocine 10-30 μM, ibogaine 10-50 μM
Description: Human mammary carcinoma (MDA MB 468) cells were obtained from ATCC, Manassas, Va., USA; catalogue number HTB-132; cells were grown in accordance with the manufacturer's instructions.
(§1) For calcium imaging experiments cells were plated onto poly-L-lysine coated coverslips (13 mm). Single cell imaging was performed utilizing a MiraCal Imaging facility (Life Science Resources, Cambridge, U.K.) with a Nikon Diaphot-TMD inverted epifluorescence microscope equipped with a ×40 oil immersion objective and Sutter filter wheel. The imager was equipped with a Lambert intensifier 1187 (Life Sciences Resources) providing a ×30 enhancement of the fluorescent signal, thus limiting phototoxicity.
(§2) Fura-2 acetoxymethyl ester (fura-2 AM) incubations with the cells were performed at 37° C. in a medium containing (in mM): 120 NaCl, 3.5 KCl, 0.4 KH2PO4, 5 NaHCO3, 1.2 Na2SO4, 15 glucose, 1.2 MgCl2, 1 CaCl2, and 20 TES [N-tris(hydroxymethyl) methyl-2-aminoethane sulphonic acid] pH adjusted to 7.4 with NaOH. Typically cells were incubated in 3 μM fura-2 AM for 25 min., which permitted sufficient accumulation of free fura-2 in the cell cytoplasm. Cells were then illuminated alternately at 340 and 380 nm with the emitted 505 nm light being detected by a photomultiplier. Free fura emits maximally when excited at 380 nm, whilst the calcium bound fura has a maximal emission when excited at 340 nm. Thus the ratio of emission when alternately excited at 340/380 nm is a measure of the calcium concentration in equilibrium with the chelator. Changes of intracellular calcium were quantified as the percentage increase of the fluorescent ratio (determined at ˜505 nm) obtained by exciting the test cells alternatively at 340 nm (optimal for calcium bound dye) and 380 nm.

[2] = system: microvascular endothelial cells; details: equimolar, 10 micromolar, GB0007842.8, WO 0174359; cited from earlier work
[3] = system: human primary microvascular endothelial cells; assay: Fura-2 calcium imaging, microvascular endothelial cells; format: cell-based; details: microvascular endothelial cells; FIG. 2b: IPAG 10 μM, rimcazole 10-30 μM, (+)-pentazocine 10-30 μM
Description: Human adult dermal microvascular endothelial cells (catalogue number CC-2543; cells had been characterised by tests for cell type markers: positive for acetylated LDL uptake, positive for factor VIII related antigen, negative for alpha smooth muscle actin)
as §1, §2

[4] = system: microvascular endothelial cells; assay: MTS cell viability/proliferation assay, microvascular endothelial cells; format: cell-based, human; details: 1-10 μM
Description: (§3) This was carried out using an MTS assay (reagents from Promega Corporation, Madison Wis., USA) which is a modification of the MTT assay (as described in Jacobson et al, 1994 EMBO J Vol 13 pp1899-1910). The assay depends on conversion of the MTS tetrazolium compound to a coloured formazan product in metabolically active cells; it is therefore an assay of viable cell number. A decline in values implies cell killing as long as cell disappearance by apoptosis in untreated cell populations is absent or negligible (as with most healthy primary cell populations).
(§4) Cells were seeded in the range 1.5×10^5-1.8×10^5 cells per ml of culture medium in 96 well microtitre plates and allowed to attach in a humidifed atmosphere of 5% CO2 in air at 37 deg C. Drugs were added 18-24 hours later and cell viability/proliferation measured at time intervals up to 48-72 hours post-drug addition when the experiment was terminated. Mean (±SE) values at each time point were obtained from wells in triplicate.
(§5) Cell viability was measured as follows: 20 μl of MTS solution (Promega) was added to wells and incubated at 37 deg C. for 3 hours during which time a coloured formazan product is generated in viable cells. […] Viable cell number was then measured by reading absorbance at 490 nm in a Dynex microtitre plate reader. […]

[5] = system: sigma-1 compared to sigma-2 sites; details: Abou-Gharbia et al 1993; cited from earlier work
MDA MB 468 cells [6] = assay: MTS cell viability/proliferation assay, MDA MB 468 cells; format: cell-based, human; details: MDA 468 cells; 1-10 μM
Description: as §3, §4, §5

phospholipase C [7] = assay: GFP-PH PLCdelta 1 relocalisation (PLC activation) in MDA MB 468 cells; format: cell-based, human; details: for relocalisation of GFP-PH PLC delta 1 from membrane to cytosol: 100 μM, approximately 10 minutes, DMEM with 10% fetal bovine serum
Description: The inventors introduced a recombinant plasmid vector encoding a hybrid protein comprised of the pleckstrin homology (PH) domain of phospholipase C (PLC) delta 1 fused green fluorescent protein (GFP) (GFP-PH PLCdelta 1) into MDA MB 468 mammary carcinoma cells. A standard transfection method (Fugene-6—Roche) was used. […] Cells were maintained in DMEM with 10% fetal bovine serum at 37 deg C. in 5% CO2 before and during exposure to sigma ligands which were present at a range of concentrations. Effects on the GFP-PH PLCdelta 1 protein were studied in two ways: by time lapse microscopy (using a Leica inverted fluorescence microscope and a Hammamatsu Orca charge-coupled device camera, linked to an Improvision Open Lab image processing workstation). This enabled the time course of effects to be determined. […] Control cell populations received drug vehicle alone and were analysed at the same time points.
GFP-PH PLC delta 1—expressing MDA MB 468 cells were exposed to sigma antagonists in 1 mM and 0 mM (nominally calcium-free) buffer (as used for the calcium imaging experiments, described above) and monitored by time lapse imaging as above.

mammary epithelial cells = assay: MTS cell viability/proliferation assay, mammary epithelial cells; format: cell-based, human; details: 1-10 μM
Description: Human mammary epithelial cells (catalogue number CC-2551; stain positive for cytokeratins 14, 18 and 19)
as §3
as §4, with “Mean (±SE) values at each time point were obtained from wells in triplicate.” left out
as §5

phospholipase C [8] = assay: Quantitative HPLC assay of inositol phosphates (IP3 levels) in MDA MB 468 cells; format: cell-based, human; details: [3H] inositol labelled cells
Excerpt: The PH domain of PLC delta 1 has a higher affinity for the phosphoinositide IP3 compared to PIP2. IP3 is produced from PIP2 in response to activation of PLC. Since PIP2 is membrane-bound whereas IP3 is cytosolic, the activation of PLC can be visualised in living cells by the relocalisation of GFP-PH PLC delta 1 from membrane to cytosol. A proviso to this interpretation is that, in conditions where PIP2 levels decline relative to IP3, the net effect would be relocalisation of GFP-PH PLC delta 1 from membrane to cytosol. Thus, to exclude this possibility, quantitative phospholipid assays were performed. (In this analysis, cells were labelled with [^3H] inositol in inositol-free DMEM (In Vitrogen—Gibco) with dialysed FBS for 48 hours before exposure to sigma ligands. Cells were then lysed and subjected to quantitative HPLC assay). These assays confirmed that IP3 levels had risen in cells exposed to sigma antagonists (IP3 levels had risen to 240% and 166% of the level prior to provision of the test substance in response to IPAG and rimcazole respectively) but had not risen in cells exposed to sigma-1 or sigma-2 agonists. This confirmed activation of PLC by sigma antagonists.

adult dermal fibroblasts = assay: MTS cell viability/proliferation assay, adult dermal fibroblasts; format: cell-based, human; details: 1-10 μM
Description: as §3, §4, §5

[9] = system: human prostate epithelial cells; assay: MTS cell viability/proliferation assay, prostate epithelial cells; format: cell-based; details: 1-10 μM
Description: as §3, §4, §5

Compound: CC(C)=CCN1CCC2(C)c3cc(O)ccc3CC1C2C (single isomer, unassigned; (+)) [(+)-pentazocine]
- % increase of cytosolic calcium (peak 340/380 nm fura-2 ratio) (MDA MB 468 cells [1]; 10 μM): 5±7%
- % increase of cytosolic calcium (peak 340/380 nm fura-2 ratio) (MDA MB 468 cells [1]; 30 μM): −7±6%
- effect on cytosolic calcium levels (in words) (MDA MB 468 cells [1]): little or no rise; also recorded: little or no effect
- prevention of rimcazole- and IPAG-induced death and cytostasis [2]: completely prevented
- increase in cytosolic calcium [3]: little or no effect

Compound: C[C@@H]1CN(CCCn2c3ccccc3c3ccccc32)C[C@H](C)N1 [rimcazole]
- Cytotoxicity [4]: cytotoxic
- % increase of cytosolic calcium (peak 340/380 nm fura-2 ratio) (MDA MB 468 cells [1]; 30 μM): 92±8%
- effect on cytosolic calcium levels (in words) (MDA MB 468 cells [1]): increase cytosolic calcium levels
- selectivity for sigma-1 compared to sigma-2 sites [5]: approximately 5 fold
- Cytotoxicity (MDA MB 468 cells [6]): cytotoxic
- relocalisation of GFP-PH PLC delta 1 from membrane to cytosol (phospholipase C [7]): pronounced relocalisation
- localisation of GFP-PH PLC delta 1 (phospholipase C [7]; nominally calcium-free buffer (0 mM calcium)): remained membrane-localised
- Cytotoxicity (mammary epithelial cells): not cytotoxic
- IP3 levels, % of the level prior to provision of the test substance (phospholipase C [8]): 166%
- Cytotoxicity (adult dermal fibroblasts): not cytotoxic
- Cytotoxicity [9]: not cytotoxic

Compound: (+)-SKF 10,047
- effect on cytosolic calcium levels (in words) (MDA MB 468 cells [1]): little or no effect
- effect on cytosolic calcium levels (in words) (MDA MB 468 cells [1]; listed as (+)-SKF-10,047): little or no rise

Compound: ibogaine
- effect on cytosolic calcium levels (in words) (MDA MB 468 cells [1]): little or no rise; also recorded: fails to induce a significant rise
- relocalisation of GFP-PH PLC delta 1 from membrane to cytosol (phospholipase C [7]): failed to produce this effect
